The first assay concerns the target truncated form of human NaV 1.8 with full channel activity (Homo sapiens, UniProt Q9Y5Y9). Put plainly: E-VIPR Assay Method A for detecting and measuring Nav inhibition (HEK cells, membrane potential FRET dyes, electrical stimulation). The settings on record: HEK cells expressing human NaV 1.8, HS (human serum) in compound loading buffer, 11 point dose response, top dose 3 μM, Table 20, read-out: Nav 1.8 MedChem Optical Assay EVIPR Assay Method A HS IC50. Format: cell-based. Summed up:
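Read-out: FRET membrane-potential dye ratio (460/580 nm) before and during E-VIPR field stimulation at 10 Hz for 10 s, expressed as % activity between DMSO and positive controls. Cells: HEK with truncated human NaV1.8; compound preincubated 30 min at room temp, final DMSO 0.625%.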
Sequence of truncated form of human NaV 1.8 with full channel activity (Q9Y5Y9 126-1722 limits assumed): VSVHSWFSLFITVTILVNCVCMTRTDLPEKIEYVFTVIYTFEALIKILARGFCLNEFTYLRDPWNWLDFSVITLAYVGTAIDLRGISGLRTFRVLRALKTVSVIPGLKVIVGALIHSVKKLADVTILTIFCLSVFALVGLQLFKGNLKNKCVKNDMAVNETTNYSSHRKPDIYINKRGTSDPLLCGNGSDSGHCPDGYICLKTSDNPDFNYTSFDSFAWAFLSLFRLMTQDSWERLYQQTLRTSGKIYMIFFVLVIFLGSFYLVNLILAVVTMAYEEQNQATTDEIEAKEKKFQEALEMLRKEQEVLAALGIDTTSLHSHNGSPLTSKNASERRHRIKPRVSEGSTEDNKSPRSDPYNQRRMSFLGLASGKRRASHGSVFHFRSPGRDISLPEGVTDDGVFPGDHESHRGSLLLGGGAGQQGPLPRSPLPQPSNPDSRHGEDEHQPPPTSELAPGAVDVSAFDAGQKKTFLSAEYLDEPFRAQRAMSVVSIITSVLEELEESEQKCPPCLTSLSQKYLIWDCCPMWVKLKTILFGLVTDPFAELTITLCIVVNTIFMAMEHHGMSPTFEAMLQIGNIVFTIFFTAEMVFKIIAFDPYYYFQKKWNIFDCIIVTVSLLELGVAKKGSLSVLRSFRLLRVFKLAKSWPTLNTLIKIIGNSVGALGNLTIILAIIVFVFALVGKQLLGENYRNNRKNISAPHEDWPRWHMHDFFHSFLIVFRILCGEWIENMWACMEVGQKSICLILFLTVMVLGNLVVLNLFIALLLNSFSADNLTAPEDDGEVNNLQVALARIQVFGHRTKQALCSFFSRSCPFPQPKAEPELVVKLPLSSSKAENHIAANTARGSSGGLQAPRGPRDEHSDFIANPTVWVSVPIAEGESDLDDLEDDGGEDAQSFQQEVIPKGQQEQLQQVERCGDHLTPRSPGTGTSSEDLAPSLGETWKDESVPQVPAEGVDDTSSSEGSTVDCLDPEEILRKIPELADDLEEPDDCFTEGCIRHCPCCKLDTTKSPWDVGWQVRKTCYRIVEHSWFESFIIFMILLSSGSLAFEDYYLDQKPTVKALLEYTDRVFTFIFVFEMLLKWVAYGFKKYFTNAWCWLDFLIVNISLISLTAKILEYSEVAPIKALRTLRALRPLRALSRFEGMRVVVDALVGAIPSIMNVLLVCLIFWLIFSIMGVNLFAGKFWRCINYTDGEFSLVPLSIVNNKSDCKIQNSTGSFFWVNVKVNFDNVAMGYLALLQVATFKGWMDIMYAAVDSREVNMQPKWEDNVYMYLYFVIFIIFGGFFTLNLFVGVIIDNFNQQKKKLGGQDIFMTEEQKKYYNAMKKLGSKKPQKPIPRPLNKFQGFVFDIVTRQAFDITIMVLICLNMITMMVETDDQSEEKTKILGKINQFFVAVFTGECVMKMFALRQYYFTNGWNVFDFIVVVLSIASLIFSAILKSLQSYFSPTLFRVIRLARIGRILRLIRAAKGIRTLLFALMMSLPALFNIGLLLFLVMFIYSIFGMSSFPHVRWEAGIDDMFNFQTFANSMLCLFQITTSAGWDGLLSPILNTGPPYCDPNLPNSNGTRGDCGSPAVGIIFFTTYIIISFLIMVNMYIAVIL
For the molecule `Cc1cc(OC(F)(F)F)ccc1Oc1ccc(C(F)(F)F)c(F)c1C(=O)Nc1ccc(F)c(C(N)=O)c1` [Compound 10, N-(3-carbamoyl-4-fluoro-phenyl)-2-fluoro-6-[2-methyl-4-(trifluoromethoxy)phenoxy]-3-(trifluoromethyl)benzamide], the IC50 – broadly, the midpoint of a concentration-inhibition curve – turned out to be 3 nM.
The same measure, in the same setting: to `COc1cc(OC(F)(F)F)ccc1Oc1cc(OC(F)F)cc(F)c1C(=O)Nc1ccnc(C(N)=O)c1` [Compound 20, 4-[[4-(difluoromethoxy)-2-fluoro-6-[2-methoxy-4-(trifluoromethoxy)phenoxy]benzoyl]amino]pyridine-2-carboxamide] belongs 10 nM.
As for `COc1cc(OC(F)(F)F)ccc1Oc1ccc(Cl)c(F)c1C(=O)Nc1ccnc(C(N)=O)c1` [Compound 5, 4-[[3-chloro-2-fluoro-6-[2-methoxy-4-(trifluoromethoxy)phenoxy]benzoyl]amino]pyridine-2-carboxamide], the IC50 amounted to 2 nM.

The assay is the same for the next values; noted with them: HEK cells expressing human NaV 1.8, HS (human serum) in compound loading buffer, 11 point dose response, top dose 3 μM, Table 20A, read-out: Nav 1.8 MedChem Optical Assay EVIPR Assay Method A HS IC50.
Regarding `[2H]C([2H])([2H])Oc1c(Oc2cc(Cl)c(C(F)F)c(F)c2C(=O)Nc2ccnc(C(N)=O)c2)ccc(OC(F)(F)F)c1F` [Compound 234, 4-[[4-Chloro-3-(difluoromethyl)-2-fluoro-6-[3-fluoro-2-(trideuteriomethoxy)-4-(trifluoromethoxy)phenoxy]benzoyl]amino]pyridine-2-carboxamide], the IC50 came to 4 nM.
`[2H]C([2H])([2H])Oc1cc(OC(F)(F)F)ccc1Oc1ccc(C(F)(F)F)c(F)c1C(=O)Nc1cc(C(N)=O)ncc1C` [Compound 137, 4-[[2-Fluoro-6-[2-(trideuteriomethoxy)-4-(trifluoromethoxy)phenoxy]-3-(trifluoromethyl)benzoyl]amino]-5-methyl-pyridine-2-carboxamide]: the concentration for half-maximal inhibition (IC50) came out at 5 nM.
The same measure, in the same setting: to `Cc1cnc(C(N)=O)cc1NC(=O)c1c(Oc2ccc(OC(F)(F)F)cc2)ccc(Cl)c1F` [Compound 244, 4-[[3-chloro-2-fluoro-6-[4-(trifluoromethoxy)phenoxy]benzoyl]amino]-5-methyl-pyridine-2-carboxamide] belongs 73 nM; to `COc1cc(OC(F)(F)F)ccc1Oc1ccc(F)c(Cl)c1C(=O)Nc1cc(C(N)=O)ncc1C` [Compound 129, 4-[[2-Chloro-3-fluoro-6-[2-methoxy-4-(trifluoromethoxy)phenoxy]benzoyl]amino]-5-methyl-pyridine-2-carboxamide], 69 nM; to `COc1cc(OC(F)(F)F)ccc1Oc1cc([C@@H]2C[C@H]2C)ncc1C(=O)Nc1ccc(F)c(C(N)=O)c1` (single isomer, unassigned) [Compound 114], 17 nM.
For `NC(=O)c1ccc(NC(=O)c2c(Oc3ccc(OC(F)(F)F)cc3)ccc(C(F)(F)F)c2F)cn1` [Compound 60, 5-[[2-fluoro-6-[4-(trifluoromethoxy)phenoxy]-3-(trifluoromethyl)benzoyl]amino]pyridine-2-carboxamide], the IC50 came to 185 nM.
Take `COc1cc(OC(F)(F)F)ccc1Oc1cnc(C(F)(F)F)c(OC)c1C(=O)Nc1ccnc(C(N)=O)c1` [Compound 166, N-(2-Carbamoyl-4-pyridyl)-3-methoxy-5-[2-methoxy-4-(trifluoromethoxy)phenoxy]-2-(trifluoromethyl)pyridine-4-carboxamide]: the IC50 is 5 nM.
Regarding `COc1cc(OC(F)(F)F)ccc1Oc1cnc(C2CC2)c(F)c1C(=O)Nc1ccc(F)c(C(N)=O)c1` [Compound 46, N-(3-Carbamoyl-4-fluoro-phenyl)-2-cyclopropyl-3-fluoro-5-[2-methoxy-4-(trifluoromethoxy)phenoxy]pyridine-4-carboxamide], the IC50 stood at 1200 nM.
Still for that read-out and setting: next, `COc1cc(F)ccc1Oc1ccc(OC(F)(F)F)cc1C(=O)Nc1ccnc(C(N)=O)c1` [Compound 157, 4-[[2-(4-Fluoro-2-methoxy-phenoxy)-5-(trifluoromethoxy)benzoyl]amino]pyridine-2-carboxamide]: 1000 nM; `NC(=O)c1cc(NC(=O)c2c(Oc3ccc(OC(F)(F)F)cc3)ccc(C3CC3)c2F)ccc1F` [Compound 71, N-(3-Carbamoyl-4-fluoro-phenyl)-3-cyclopropyl-2-fluoro-6-[4-(trifluoromethoxy)phenoxy]benzamide]: 40 nM.
On the same count and under the same terms, next, `[2H]C([2H])([2H])Oc1cc(OC(F)(F)F)ccc1Oc1ccc(C(F)(F)F)c(F)c1C(=O)Nc1ccc(C(N)=O)nc1C` [Compound 188, 5-[[2-Fluoro-6-[2-(trideuteriomethoxy)-4-(trifluoromethoxy)phenoxy]-3-(trifluoromethyl)benzoyl]amino]-6-methyl-pyridine-2-carboxamide]: 160 nM.
The same measure, in the same setting: next, `COc1cc(OC(F)(F)F)ccc1Oc1cnc(C(F)(F)F)c(OC)c1C(=O)Nc1ccc(C(N)=O)nc1` [Compound 203, N-(6-Carbamoyl-3-pyridyl)-3-methoxy-5-[2-methoxy-4-(trifluoromethoxy)phenoxy]-2-(trifluoromethyl)pyridine-4-carboxamide]: 46 nM; `[2H]C([2H])([2H])Oc1cc(OC(F)(F)F)ccc1Oc1ccc(OC(F)(F)F)cc1C(=O)Nc1ccnc(C(N)=O)c1` [Compound 158, 4-[[2-[2-(Trideuteriomethoxy)-4-(trifluoromethoxy)phenoxy]-5-(trifluoromethoxy)benzoyl]amino]pyridine-2-carboxamide]: 150 nM; `[2H]C([2H])([2H])Oc1cc(OC(F)(F)F)ccc1Oc1ccc(OC(F)F)c(F)c1C(=O)Nc1ccc(C(N)=O)nc1` [Compound 198, 5-[[3-(Difluoromethoxy)-2-fluoro-6-[2-(trideuteriomethoxy)-4-(trifluoromethoxy)phenoxy]benzoyl]amino]pyridine-2-carboxamide]: 150 nM.
As for `NC(=O)c1ccc(NC(=O)c2c(Oc3ccc(OC(F)(F)F)cc3)ccc(C(F)(F)F)c2F)cc1F` [Compound 65, N-(4-Carbamoyl-3-fluoro-phenyl)-2-fluoro-6-[4-(trifluoromethoxy)phenoxy]-3-(trifluoromethyl)benzamide], the IC50 was 79 nM.
On the same count and under the same terms, to `Cc1cc(F)c(C(N)=O)cc1NC(=O)c1c(Oc2ccc(OC(F)(F)F)cc2)ccc(C(F)(F)F)c1F` [Compound 124, N-(5-Carbamoyl-4-fluoro-2-methyl-phenyl)-2-fluoro-6-[4-(trifluoromethoxy)phenoxy]-3-(trifluoromethyl)benzamide] belongs 220 nM; to `COc1ccc(Oc2ccc(C(F)(F)F)c(F)c2C(=O)Nc2ccnc(C(N)=O)c2)c(OC(F)(F)F)c1` [Compound 196, 4-[[2-Fluoro-6-[4-methoxy-2-(trifluoromethoxy)phenoxy]-3-(trifluoromethyl)benzoyl]amino]pyridine-2-carboxamide], 44 nM; to `NC(=O)c1cc(NC(=O)c2c(Oc3ccc(F)cc3)cccc2C(F)(F)F)ccc1F` [Compound 37, N-(3-Carbamoyl-4-fluoro-phenyl)-2-(4-fluorophenoxy)-6-(trifluoromethyl)benzamide], 890 nM.
For `COc1cc(OC(F)(F)F)ccc1Oc1cc(C(C)(C)F)ncc1C(=O)Nc1ccnc(C(N)=O)c1` [Compound 104, N-(2-Carbamoyl-4-pyridyl)-6-(1-fluoro-1-methyl-ethyl)-4-[2-methoxy-4-(trifluoromethoxy)phenoxy]pyridine-3-carboxamide], the IC50 amounted to 64 nM.
The same measure, in the same setting: next, `COc1cc(OC(F)(F)F)ccc1Oc1ccc(C(F)(F)F)c(OC)c1C(=O)Nc1cc(C(N)=O)ncc1F` [Compound 128, 5-Fluoro-4-(2-methoxy-6-(2-methoxy-4-(trifluoromethoxy)phenoxy)-3-(trifluoromethyl)benzamido)picolinamide]: 18 nM; `COc1cc(OC(F)(F)F)ccc1Oc1ccc(C(F)(F)F)c(F)c1C(=O)Nc1cc(C(N)=O)ncc1C` [Compound 120, 4-[[2-Fluoro-6-[2-methoxy-4-(trifluoromethoxy)phenoxy]-3-(trifluoromethyl)benzoyl]amino]-5-methyl-pyridine-2-carboxamide]: 5 nM.
Take `COc1cc(OC(F)(F)F)ccc1Oc1ccc(C(F)(F)F)c(OC)c1C(=O)Nc1ccc(C(N)=O)cn1` [Compound 205, 6-[[2-Methoxy-6-[2-methoxy-4-(trifluoromethoxy)phenoxy]-3-(trifluoromethyl)benzoyl]amino]pyridine-3-carboxamide]: the IC50 is 150 nM.
On the same count and under the same terms, next, `CNC(=O)c1cc(NC(=O)c2c(Oc3ccc(OC(F)(F)F)cc3OC)ccc(C(F)(F)F)c2F)ccc1F` [Compound 99, 2-fluoro-N-[4-fluoro-3-(methylcarbamoyl)phenyl]-6-[2-methoxy-4-(trifluoromethoxy)phenoxy]-3-(trifluoromethyl)benzamide]: 3 nM; `COc1cc(OC(F)(F)F)ccc1Oc1cc(C(F)(F)F)ncc1C(=O)Nc1cccc(C(N)=O)c1` [Compound 29, N-(3-Carbamoylphenyl)-4-[2-methoxy-4-(trifluoromethoxy)phenoxy]-6-(trifluoromethyl)pyridine-3-carboxamide]: 112 nM; `COc1cc(OC(F)(F)F)ccc1Oc1cnc(C(F)(F)F)c(F)c1C(=O)Nc1ccc(F)c(C(N)=O)c1` [Compound 45, N-(3-carbamoyl-4-fluoro-phenyl)-3-fluoro-5-[2-methoxy-4-(trifluoromethoxy)phenoxy]-2-(trifluoromethyl)pyridine-4-carboxamide]: 1 nM.
Take `NC(=O)c1cc(NC(=O)c2c(Oc3ccc(OC(F)(F)F)cc3)ccc3c2CCC3(F)F)ccc1F` [Compound 190, N-(3-Carbamoyl-4-fluoro-phenyl)-1,1-difluoro-5-[4-(trifluoromethoxy)phenoxy]indane-4-carboxamide]: the 50% inhibitory concentration (IC50) worked out at 32 nM.
